Tests used:
Format in all cases: cell-based
[1] = system: S. aureus (ATCC® 292213™); assay: MBC, bacterial count from clear wells reseeded on agar (Example 5); conditions: Table 2
Protocol: (§1) To determine whether the agents tested are bactericidal, the minimum bactericidal concentration (MBC) is determined. The MBC corresponds to the concentration leaving a number of bacterial survivors of <4 log. For this, a bacterial count is run from clear wells or without bacterial residue (C≤MIC). To do this, a dilution to 1/100 was conducted with the two wells with the same concentration before seeding on a blood agar using the Spiral technique. After 24 h of incubation at 37° C., the visual count allowed determination of the minimum concentration from which there is no bacterial growth.
(§2) To determine the bactericidal effect of compounds presenting bacteriostatic properties, the wells no longer presenting turbidity were reseeded on agar.

[2] = system: E. faecalis (ATCC® 29212™); assay: as above; conditions: Table 2; reseeded on agar
Protocol: as §1, §2

[3] = system: L. monocytogenes (CIP 103575); assay: as above; conditions: Table 2; reseeded on agar
Protocol: as §1, §2

[4] = system: Enterococci: E. faecalis strains; assay: MIC microdilution on wider panel (Example 8), E. faecalis strains
Protocol: The cultures studied, freshly isolated (after incubation on a blood agar at 37° C. for 18 h), are taken up in sterile water (10 mL) until a 0.5 McFarland (Mc) suspension i.e. at 1 to 2×10^8 CFU (bacteria)/cm^3 is obtained. The bacterial suspension was then diluted to obtain a final concentration of 1×10^6 CFU/cm^3. Each well contains an identical quantity of Mueller-Hinton medium (a rich medium for bacterial culture) and bacteria with final 0.5×10^6 CFU/cm^3. The test compounds of interest are solubilized in ethanol or DMSO at 25 mg/mL before being diluted to different concentrations two by two. On the multiwell plate, a first series has been planned comprising the culture medium without the test compound of interest. It corresponds to the growth control (control well). These controls serve as reference for comparing bacterial growth with that of the subsequent wells comprising different concentrations of the test compound of interest. The second series of wells comprises the mother solution for the test compound of interest for a concentration in the wells of 256 mg (7 mM). Each series of wells was diluted two by two until the last series for a final concentration of 0.25 mg/L (0.0007 mM). Each concentration is duplicated in the same plate. The plate is incubated for 18 h at 37° C. […] If there is antibacterial activity, the bacterial growth is inhibited, which means that no turbidity or bacterial residue is present. The minimum inhibitory concentrations (MIC) are tested on Gram-positive bacterial strains according to the recommendations of the “Clinical Laboratory Standards Institute” (Clinical-Laboratory-Standards-Institute, 6th ed. Approved standard M100-S17. CLSI, Wayne, Pa., 2007). The clinical strains have been isolated in the Hospice de Lyon. […]

With Dodecyl-1,4-d-sorbitan [Example 2e] the “minimum bactericidal concentration (MBC) S. aureus” value [1] was 120 µM, the “minimum bactericidal concentration (MBC) E. faecalis” value [2] was 120 µM and the “minimum bactericidal concentration (MBC) L. monocytogenes” value [3] was 120 µM. The “Minimum inhibitory concentration (MIC) ATCC 29212” value ([4]; E. faecalis ATCC 29212) was 8 µg/mL, the “Minimum inhibitory concentration (MIC) 1801” value ([4]; clinical E. faecalis from urines, strain 015205261801) was 8 µg/mL and the “Minimum inhibitory concentration (MIC) 9901” value ([4]; clinical E. faecalis from urines, strain 015206179901) was 16 µg/mL.

Reference: US10874103B2, “Antibacterial composition comprising an acetal or a long-chain alkyl hexitane ether” (TEREOS STARCH & SWEETENERS BELGIUM, priority 2014, dated 2020)
